We go through two molecules from US20250064760A1, “INTRACANALICULAR INSERT COMPRISING A NON-STEROIDAL ANTI-INFLAMMATORY AGENT” (OCULAR THERAPEUTIX, INC., priority 2022, published 2025).

The conditions of data set [1]: cited from earlier work.
For data set [2] the following is noted: cited from earlier work. This is another data set of the same source.
For data set [3] the following is noted: aqueous suspension at 0.1%; cited from earlier work.
A short description of a further data set: Nepafenac solubility. It counts as physicochemical. As to conditions: aqueous buffer; PBS, pH 7.2 at 37° C. On the procedure:
Nepafenac is a monocarboxylic acid amide that is amfenac in which the carboxylic acid group has been converted into the corresponding carboxamide. Nepafenac is yellow crystalline or powdery substance practically insoluble in water (14 mcg/mL). Nepafenac is soluble in organic solvents such as ethanol, DMSO, and dimethyl formamide (DMF). The solubility of nepafenac in ethanol is approximately 0.5 mg/mL and approximately 30 mg/ml in DMSO and DMF. An aqueous suspension at 0.1% gives an average pH of 6.75. The coefficient partition n-octanol/water is 128. […] Nepafenac is an achiral substance and there are no possible variations in the stereochemical configuration.
Nepafenac solubility testing in PBS, pH 7.2 at 37° C. is approximately 102 mcg/mL.

Data set [4] concerns the target T1, cyclooxygenase-2 (COX-2) enzyme (Homo sapiens, UniProt P35354).
T1 sequence (P35354 18-604): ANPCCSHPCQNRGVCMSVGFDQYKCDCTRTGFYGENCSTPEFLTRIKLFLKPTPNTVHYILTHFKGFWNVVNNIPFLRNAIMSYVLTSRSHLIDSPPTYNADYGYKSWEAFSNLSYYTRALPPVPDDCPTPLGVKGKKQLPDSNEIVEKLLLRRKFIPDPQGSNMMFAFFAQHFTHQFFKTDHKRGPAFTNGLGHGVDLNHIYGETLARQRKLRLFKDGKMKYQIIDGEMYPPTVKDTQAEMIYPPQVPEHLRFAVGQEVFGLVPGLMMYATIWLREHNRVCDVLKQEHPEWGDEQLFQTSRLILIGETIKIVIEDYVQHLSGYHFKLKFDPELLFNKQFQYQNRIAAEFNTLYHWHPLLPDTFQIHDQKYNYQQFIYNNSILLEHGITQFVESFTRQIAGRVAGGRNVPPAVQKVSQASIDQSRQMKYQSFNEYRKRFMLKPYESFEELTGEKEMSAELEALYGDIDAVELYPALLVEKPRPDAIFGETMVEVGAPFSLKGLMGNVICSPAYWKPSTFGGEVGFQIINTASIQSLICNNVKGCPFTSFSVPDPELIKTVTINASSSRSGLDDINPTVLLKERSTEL
As to conditions: Walters et al., 2007; cited from earlier work.

SMILES strings stand for the structures. In brackets after ≈: the same amount, converted by molar mass. Several values for one entry are separate records, joined by “and”; a condition that tells them apart may be missing. Equal entries are not always repeated.

With `NC(=O)Cc1cccc(C(=O)c2ccccc2)c1N` [Nepafenac, 2-(2-amino-3-benzoylphenyl)acetamide], the “solubility in DMF” value in data set [1] (DMF) is on record as “approximately 30 mg/ml”. The “solubility in DMSO” value in data set [1] (DMSO) is “approximately 30 mg/ml”. In addition, in data set [1] (ethanol), the solubility in ethanol result was “approximately 0.5 mg/mL”. Also, the solubility in water in data set [1] (water) was 14 µg/mL (≈ 55.1 µM). The coefficient partition n-octanol/water in data set [2] was 128. Besides, the “average pH of aqueous suspension” value in data set [3] is 6.75. In the data set “Nepafenac solubility”, the solubility (as a rule, the dissolved amount per volume that the medium holds) is approximately 102 µg/mL (≈ 401 µM).

`Nc1c(CC(=O)O)cccc1C(=O)c1ccccc1` [amfenac]: in data set [4], the IC50 (commonly the concentration needed to halve the response being measured) was ~1.76 nM and 1.76 nM.
